How the values were obtained:
Assay in all cases: Kinase selectivity: percentage inhibition of each specific kinase at 1 μM inhibitor concentration
Type in all cases: biochemical
[1] = target: each specific kinase (kinase selectivity panel, Table 2) (Homo sapiens, UniProt P28482); settings: ERK2
Experimental: (§1) Values are expressed as percentage inhibition of the each specific kinase at 1 μM inhibitor concentration.

[2] = target: each specific kinase (kinase selectivity panel, Table 2) (Homo sapiens, UniProt Q96RR4); settings: CAMKKb
Sequence of each specific kinase (kinase selectivity panel, Table 2) (Homo sapiens, UniProt Q96RR4) (Q96RR4 whole entry): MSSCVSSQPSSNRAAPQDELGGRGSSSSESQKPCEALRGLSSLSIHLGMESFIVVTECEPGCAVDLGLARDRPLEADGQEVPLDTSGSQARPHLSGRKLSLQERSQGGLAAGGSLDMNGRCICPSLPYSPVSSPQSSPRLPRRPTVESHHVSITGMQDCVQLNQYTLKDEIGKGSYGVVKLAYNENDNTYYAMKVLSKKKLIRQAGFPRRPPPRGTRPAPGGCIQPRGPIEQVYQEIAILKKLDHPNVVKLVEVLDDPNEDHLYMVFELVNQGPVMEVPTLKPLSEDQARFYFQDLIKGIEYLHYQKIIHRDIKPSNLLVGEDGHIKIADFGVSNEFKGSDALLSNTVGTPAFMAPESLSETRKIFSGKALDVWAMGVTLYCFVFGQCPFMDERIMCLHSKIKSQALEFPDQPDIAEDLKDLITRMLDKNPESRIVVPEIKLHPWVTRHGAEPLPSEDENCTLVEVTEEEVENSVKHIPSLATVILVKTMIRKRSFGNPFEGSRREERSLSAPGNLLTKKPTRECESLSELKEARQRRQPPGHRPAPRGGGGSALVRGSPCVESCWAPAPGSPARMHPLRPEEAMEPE
Experimental: as §1

[3] = target: each specific kinase (kinase selectivity panel, Table 2) (Homo sapiens, UniProt Q9P289); settings: MST4
Experimental: as §1

[4] = target: each specific kinase (kinase selectivity panel, Table 2) (Homo sapiens, UniProt P11309); settings: PIM1
Experimental: as §1

[5] = target: each specific kinase (kinase selectivity panel, Table 2) (Homo sapiens, UniProt P06213); settings: IR
Experimental: as §1

[6] = target: each specific kinase (kinase selectivity panel, Table 2) (Homo sapiens, UniProt Q9HC98); settings: NEK6
Experimental: as §1

[7] = target: each specific kinase (kinase selectivity panel, Table 2) (Homo sapiens, UniProt O75582); settings: MSK1
Experimental: as §1

[8] = target: each specific kinase (kinase selectivity panel, Table 2) (Homo sapiens, UniProt P45983); settings: JNK1
Experimental: as §1

[9] = target: each specific kinase (kinase selectivity panel, Table 2) (Homo sapiens, UniProt P04629); settings: TrkA
Experimental: as §1

[10] = target: each specific kinase (kinase selectivity panel, Table 2) (Homo sapiens, UniProt P12931); settings: Src
Experimental: as §1

[11] = target: each specific kinase (kinase selectivity panel, Table 2) (Homo sapiens, UniProt Q8N4C8); settings: MINK1
Experimental: as §1

[12] = target: each specific kinase (kinase selectivity panel, Table 2) (Homo sapiens, UniProt P31751); settings: PKBb
Experimental: as §1

[13] = target: each specific kinase (kinase selectivity panel, Table 2) (Homo sapiens, UniProt Q14012); settings: CAMK1
Experimental: as §1

[14] = target: each specific kinase (kinase selectivity panel, Table 2) (Homo sapiens, UniProt O00141); settings: SGK1
Experimental: as §1

[15] = target: each specific kinase (kinase selectivity panel, Table 2) (Homo sapiens, UniProt Q15746); settings: SmMLCK
Experimental: as §1

[16] = target: each specific kinase (kinase selectivity panel, Table 2) (Homo sapiens, UniProt O43353); settings: RIPK2
Experimental: as §1

[17] = target: each specific kinase (kinase selectivity panel, Table 2) (Homo sapiens, UniProt O14757); settings: CHK1
Experimental: as §1

[18] = target: each specific kinase (kinase selectivity panel, Table 2) (Homo sapiens, UniProt P11362); settings: FGF-R1
Sequence of each specific kinase (kinase selectivity panel, Table 2) (Homo sapiens, UniProt P11362) (P11362 22-822): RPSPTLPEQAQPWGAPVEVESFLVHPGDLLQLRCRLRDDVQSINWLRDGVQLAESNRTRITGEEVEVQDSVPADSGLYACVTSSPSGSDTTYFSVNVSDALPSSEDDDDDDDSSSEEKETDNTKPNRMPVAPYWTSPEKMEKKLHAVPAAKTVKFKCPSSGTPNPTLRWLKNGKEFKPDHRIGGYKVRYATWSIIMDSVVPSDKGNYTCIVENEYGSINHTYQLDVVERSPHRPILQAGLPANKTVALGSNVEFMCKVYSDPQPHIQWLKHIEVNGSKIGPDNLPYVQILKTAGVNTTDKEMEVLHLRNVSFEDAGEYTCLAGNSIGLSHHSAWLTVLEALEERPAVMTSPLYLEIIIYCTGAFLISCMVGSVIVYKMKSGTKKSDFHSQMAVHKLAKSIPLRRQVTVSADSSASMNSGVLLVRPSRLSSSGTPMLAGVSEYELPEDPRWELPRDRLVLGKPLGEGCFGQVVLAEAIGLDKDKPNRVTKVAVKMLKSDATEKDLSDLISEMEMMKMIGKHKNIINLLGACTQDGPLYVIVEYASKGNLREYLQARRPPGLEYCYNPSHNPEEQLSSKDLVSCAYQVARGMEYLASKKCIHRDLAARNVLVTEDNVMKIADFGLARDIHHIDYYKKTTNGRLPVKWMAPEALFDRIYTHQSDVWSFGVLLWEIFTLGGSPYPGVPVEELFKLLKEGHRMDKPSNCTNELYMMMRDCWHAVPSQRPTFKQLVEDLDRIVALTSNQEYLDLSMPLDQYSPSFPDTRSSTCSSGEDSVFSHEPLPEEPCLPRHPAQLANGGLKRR
Experimental: as §1

[19] = target: each specific kinase (kinase selectivity panel, Table 2) (Rattus norvegicus, UniProt Q62868); settings: ROCK 2
Sequence of each specific kinase (kinase selectivity panel, Table 2) (Rattus norvegicus, UniProt Q62868) (Q62868 whole entry): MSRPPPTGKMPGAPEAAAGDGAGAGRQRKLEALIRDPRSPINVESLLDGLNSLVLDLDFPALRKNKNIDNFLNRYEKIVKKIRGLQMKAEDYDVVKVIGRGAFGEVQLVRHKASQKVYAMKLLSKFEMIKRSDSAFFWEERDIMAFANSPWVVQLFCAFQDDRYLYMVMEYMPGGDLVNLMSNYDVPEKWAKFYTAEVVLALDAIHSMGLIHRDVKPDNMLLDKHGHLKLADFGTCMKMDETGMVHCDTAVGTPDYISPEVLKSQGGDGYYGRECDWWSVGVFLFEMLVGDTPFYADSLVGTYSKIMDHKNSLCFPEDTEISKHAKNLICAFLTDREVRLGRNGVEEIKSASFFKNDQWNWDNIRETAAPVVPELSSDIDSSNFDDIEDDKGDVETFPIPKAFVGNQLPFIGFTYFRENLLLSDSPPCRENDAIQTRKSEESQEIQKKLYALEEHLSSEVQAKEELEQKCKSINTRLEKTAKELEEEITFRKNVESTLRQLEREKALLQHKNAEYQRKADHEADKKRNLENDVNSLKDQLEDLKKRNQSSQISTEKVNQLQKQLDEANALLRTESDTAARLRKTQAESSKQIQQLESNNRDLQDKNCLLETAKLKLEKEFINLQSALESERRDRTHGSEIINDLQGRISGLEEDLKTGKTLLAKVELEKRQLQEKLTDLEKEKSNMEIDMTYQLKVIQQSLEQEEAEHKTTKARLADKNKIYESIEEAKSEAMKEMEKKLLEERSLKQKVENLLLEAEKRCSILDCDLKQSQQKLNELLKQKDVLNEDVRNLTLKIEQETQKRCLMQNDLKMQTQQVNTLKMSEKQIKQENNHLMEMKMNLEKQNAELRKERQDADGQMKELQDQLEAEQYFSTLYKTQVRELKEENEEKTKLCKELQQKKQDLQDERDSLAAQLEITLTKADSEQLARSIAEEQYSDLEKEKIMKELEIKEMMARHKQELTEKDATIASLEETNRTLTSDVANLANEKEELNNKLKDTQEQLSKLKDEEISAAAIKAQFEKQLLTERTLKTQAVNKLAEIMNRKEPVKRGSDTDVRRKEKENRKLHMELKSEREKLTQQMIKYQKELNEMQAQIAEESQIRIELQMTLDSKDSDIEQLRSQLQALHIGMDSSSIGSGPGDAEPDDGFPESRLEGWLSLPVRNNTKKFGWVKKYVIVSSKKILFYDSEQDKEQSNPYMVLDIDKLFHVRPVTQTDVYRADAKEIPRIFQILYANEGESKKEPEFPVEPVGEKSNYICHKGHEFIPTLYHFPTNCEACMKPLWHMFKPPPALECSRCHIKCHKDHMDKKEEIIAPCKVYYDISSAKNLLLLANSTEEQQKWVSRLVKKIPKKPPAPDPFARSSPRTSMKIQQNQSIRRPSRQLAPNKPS
Experimental: as §1

[20] = target: each specific kinase (kinase selectivity panel, Table 2) (Homo sapiens, UniProt P23443); settings: S6K1
Experimental: as §1

[21] = system: each specific kinase (kinase selectivity panel, Table 2)
Experimental: as §1

[22] = target: each specific kinase (kinase selectivity panel, Table 2) (Homo sapiens, UniProt P43405); settings: SYK
Experimental: as §1

[23] = target: each specific kinase (kinase selectivity panel, Table 2) (Homo sapiens, UniProt Q12851); settings: GCK
Experimental: as §1

[24] = target: each specific kinase (kinase selectivity panel, Table 2) (Homo sapiens, UniProt P06239); settings: Lck
Experimental: as §1

[25] = target: each specific kinase (kinase selectivity panel, Table 2) (Homo sapiens, UniProt P14616); settings: IRR
Experimental: as §1

[26] = target: each specific kinase (kinase selectivity panel, Table 2) (Homo sapiens, UniProt Q05513); settings: PKCz
Experimental: as §1

[27] = target: each specific kinase (kinase selectivity panel, Table 2) (Homo sapiens, UniProt Q15303); settings: HER4
Sequence of each specific kinase (kinase selectivity panel, Table 2) (Homo sapiens, UniProt Q15303) (Q15303 26-1308): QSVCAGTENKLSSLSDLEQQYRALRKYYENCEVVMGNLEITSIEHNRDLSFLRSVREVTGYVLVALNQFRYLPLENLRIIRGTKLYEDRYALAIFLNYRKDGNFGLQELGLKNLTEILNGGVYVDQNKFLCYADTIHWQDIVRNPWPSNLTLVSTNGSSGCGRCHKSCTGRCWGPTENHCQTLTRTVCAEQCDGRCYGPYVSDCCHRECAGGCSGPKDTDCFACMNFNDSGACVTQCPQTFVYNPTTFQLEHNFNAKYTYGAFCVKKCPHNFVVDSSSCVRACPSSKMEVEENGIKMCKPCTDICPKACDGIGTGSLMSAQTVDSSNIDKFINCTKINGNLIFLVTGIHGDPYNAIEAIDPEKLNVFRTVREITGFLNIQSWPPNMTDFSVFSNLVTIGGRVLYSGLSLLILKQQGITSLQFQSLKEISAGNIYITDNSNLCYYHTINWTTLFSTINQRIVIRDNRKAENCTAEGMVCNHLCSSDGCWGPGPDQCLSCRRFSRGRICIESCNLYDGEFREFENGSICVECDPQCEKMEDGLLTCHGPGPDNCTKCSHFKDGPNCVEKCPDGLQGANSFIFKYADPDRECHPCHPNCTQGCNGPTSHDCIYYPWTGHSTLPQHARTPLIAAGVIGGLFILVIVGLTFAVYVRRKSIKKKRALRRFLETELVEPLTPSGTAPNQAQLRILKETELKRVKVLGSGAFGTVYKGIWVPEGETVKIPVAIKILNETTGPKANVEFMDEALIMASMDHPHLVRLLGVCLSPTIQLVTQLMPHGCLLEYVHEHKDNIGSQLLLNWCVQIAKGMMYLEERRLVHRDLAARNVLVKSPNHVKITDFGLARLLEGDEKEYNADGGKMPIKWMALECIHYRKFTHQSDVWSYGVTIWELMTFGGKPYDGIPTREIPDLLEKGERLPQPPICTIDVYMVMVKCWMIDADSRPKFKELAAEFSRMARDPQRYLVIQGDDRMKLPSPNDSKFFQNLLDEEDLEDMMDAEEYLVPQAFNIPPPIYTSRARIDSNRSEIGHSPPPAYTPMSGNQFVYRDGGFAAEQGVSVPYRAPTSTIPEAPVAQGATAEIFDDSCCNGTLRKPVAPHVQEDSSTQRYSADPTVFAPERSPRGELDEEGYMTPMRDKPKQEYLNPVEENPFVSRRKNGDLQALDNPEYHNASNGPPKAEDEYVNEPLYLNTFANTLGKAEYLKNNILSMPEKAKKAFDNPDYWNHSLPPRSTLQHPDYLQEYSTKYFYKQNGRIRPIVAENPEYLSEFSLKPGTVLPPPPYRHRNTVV
Experimental: as §1

[28] = target: each specific kinase (kinase selectivity panel, Table 2) (Homo sapiens, UniProt Q96GD4); settings: Aurora B
Experimental: as §1

[29] = target: each specific kinase (kinase selectivity panel, Table 2) (Homo sapiens, UniProt O14920); settings: IKKb
Experimental: as §1

[30] = target: each specific kinase (kinase selectivity panel, Table 2) (Homo sapiens, UniProt Q02750); settings: MKK1
Experimental: as §1

[31] = target: each specific kinase (kinase selectivity panel, Table 2) (Homo sapiens, UniProt Q15831); settings: LKB1
Experimental: as §1

[32] = target: each specific kinase (kinase selectivity panel, Table 2) (Homo sapiens, UniProt P27448); settings: MARK3
Sequence of each specific kinase (kinase selectivity panel, Table 2) (Homo sapiens, UniProt P27448) (P27448 whole entry): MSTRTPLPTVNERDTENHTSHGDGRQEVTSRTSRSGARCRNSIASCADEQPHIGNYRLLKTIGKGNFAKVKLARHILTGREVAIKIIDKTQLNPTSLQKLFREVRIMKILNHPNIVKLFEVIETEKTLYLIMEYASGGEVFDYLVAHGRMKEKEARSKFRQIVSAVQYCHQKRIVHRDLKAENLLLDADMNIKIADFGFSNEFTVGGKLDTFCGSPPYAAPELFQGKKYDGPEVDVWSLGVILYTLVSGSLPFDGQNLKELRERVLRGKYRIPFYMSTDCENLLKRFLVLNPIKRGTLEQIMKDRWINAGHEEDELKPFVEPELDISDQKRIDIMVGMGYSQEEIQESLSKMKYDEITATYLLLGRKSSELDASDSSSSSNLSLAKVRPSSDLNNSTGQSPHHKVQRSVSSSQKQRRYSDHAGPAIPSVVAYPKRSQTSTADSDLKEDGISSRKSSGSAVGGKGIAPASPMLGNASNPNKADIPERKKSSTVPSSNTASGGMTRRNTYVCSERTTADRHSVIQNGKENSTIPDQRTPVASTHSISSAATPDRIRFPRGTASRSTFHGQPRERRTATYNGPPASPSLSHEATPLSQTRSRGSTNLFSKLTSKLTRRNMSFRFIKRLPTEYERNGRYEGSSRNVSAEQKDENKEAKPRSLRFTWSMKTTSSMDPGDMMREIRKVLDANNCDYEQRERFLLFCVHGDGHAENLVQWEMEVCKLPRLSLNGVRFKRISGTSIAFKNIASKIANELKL
Experimental: as §1

[33] = target: each specific kinase (kinase selectivity panel, Table 2) (Homo sapiens, UniProt P08069); settings: IGF-1R
Experimental: as §1

[34] = target: each specific kinase (kinase selectivity panel, Table 2) (Homo sapiens, UniProt Q14680); settings: MELK
Experimental: as §1

Compound | percentage inhibition of ERK2 [1] [percentage] | percentage inhibition of CAMKKb [2] [percentage] | percentage inhibition of MST4 [3] [percentage] | percentage inhibition of PIM1 [4] [percentage] | percentage inhibition of IR [5] [percentage] | percentage inhibition of NEK6 [6] [percentage] | percentage inhibition of MSK1 [7] [percentage] | percentage inhibition of JNK1 [8] [percentage] | percentage inhibition of TrkA [9] [percentage] | percentage inhibition of Src [10] [percentage] | percentage inhibition of MINK1 [11] [percentage] | percentage inhibition of PKBb [12] [percentage] | percentage inhibition of CAMK1 [13] [percentage] | percentage inhibition of SGK1 [14] [percentage] | percentage inhibition of SmMLCK [15] [percentage] | percentage inhibition of RIPK2 [16] [percentage] | percentage inhibition of CHK1 [17] [percentage] | percentage inhibition of FGF-R1 [18] [percentage] | percentage inhibition of ROCK 2 [19] [percentage] | percentage inhibition of S6K1 [20] [percentage] | further results
CC[C@H](C)Oc1nccc2[nH]nc(C)c12 [Example 121, 4-((S)-sec-Butoxy)-3-methyl-1H-pyrazolo[4,3-c]pyridine] | 0 | 12 | 23 | 15 | 8 | 6 | 48 | 7 | 26 | 0 | 17 | 3 | 5 | 23 | 22 | 1 | 10 | 36 | 57 | 0 | percentage inhibition of AMPK [21]: 29 percentage; percentage inhibition of PHK [21]: 7 percentage; percentage inhibition of SYK [22]: 0 percentage; percentage inhibition of GCK [23]: 68 percentage; percentage inhibition of Lck [24]: 0 percentage; percentage inhibition of IRR [25]: 22 percentage; percentage inhibition of PKCz [26]: 0 percentage; percentage inhibition of HER4 [27]: 0 percentage; percentage inhibition of Aurora B [28]: 0 percentage; percentage inhibition of IKKb [29]: 15 percentage; percentage inhibition of MKK1 [30]: 47 percentage; percentage inhibition of LKB1 [31]: 42 percentage; percentage inhibition of MARK3 [32]: 12 percentage; percentage inhibition of IGF-1R [33]: 46 percentage; percentage inhibition of MELK [34]: 61 percentage
O=C(CCc1n[nH]c2ccnc(NC3CCCCC3)c12)N1CCC[C@H](c2ccccc2)C1 [Example 172, 3-(4-Cyclohexylamino-1H-pyrazolo[4,3-c]pyridin-3-yl)-1-((R)-3-phenyl-piperidin-1-yl)-propan-1-one] | 9 | 21 | 10 | 0 | 4 | 1 | 1 | 17 | 5 | 6 | 18 | 0 | 14 | 1 | 18 | 0 | 0 | 0 | 7 | 14 | percentage inhibition of AMPK [21]: 0 percentage; percentage inhibition of PHK [21]: 26 percentage; percentage inhibition of SYK [22]: 4 percentage; percentage inhibition of GCK [23]: 19 percentage; percentage inhibition of Lck [24]: 25 percentage; percentage inhibition of IRR [25]: 15 percentage; percentage inhibition of PKCz [26]: 10 percentage; percentage inhibition of HER4 [27]: 10 percentage; percentage inhibition of Aurora B [28]: 15 percentage; percentage inhibition of IKKb [29]: 22 percentage; percentage inhibition of MKK1 [30]: 17 percentage; percentage inhibition of LKB1 [31]: 8 percentage; percentage inhibition of MARK3 [32]: 18 percentage; percentage inhibition of IGF-1R [33]: 18 percentage; percentage inhibition of MELK [34]: 5 percentage

Source: patent US20170320870A1 (Medical Research Council Technology, priority 2009, published 2017)
